Assays:
[1] = Pharmacokinetic study in C57BL/6 mice; type: in vivo, male C57BL/6 mice
Method: (§1) The pharmacokinctics of test compounds were evaluated in male C57BL/6 mice, Sprague Dawley rats, Beagle dogs, and cynomolgus monkeys when administered via oral gavage and IV injection. The animals were fasted overnight before administration. Plasma samples were collected predose and at 0.5, 1, 3, 6, 9, 12, and 24 hours postdose. The samples were analyzed by LC/MS/MS and the concentration of test compound at each timepoint was determined by linear regression. Pharmacokinetic parameters were calculated from the plasma concentrations using Pheonix WinNonlin.

[2] = Pharmacokinetic study in cynomolgus monkeys; type: in vivo
Method: as §1

[3] = Pharmacokinetic study in Sprague Dawley rats; type: in vivo; conditions: rat, plasma
Method: as §1

[4] = Pharmacokinetic study in Beagle dogs; type: in vivo; conditions: dog, plasma
Method: as §1

[5] = male, mouse, plasma, Oral (10 mg/kg)
[6] = male, mouse, plasma, iv, I.V. (2 mg/kg)
[7] = Oral (2 mg/kg), NA: no detectable
[8] = cynomolgus monkey, plasma, iv, I.V. (1 mg/kg)
[9] = cynomolgus monkey, plasma, Oral (2 mg/kg), NA: no detectable
[10] = iv, I.V. (1 mg/kg), read-out: Vdss

For `[2H]C([2H])([2H])CC(=O)c1cnc(NC(=O)C2CC2)cc1Nc1cccc(-c2ncn(C([2H])([2H])[2H])n2)c1OC` [Example 195], the CL ([1]; I.V. (2 mg/kg)) was 4.16 mL · kg − 1 · min − 1, the Vdss ([1]; I.V. (2 mg/kg)) was 0.688 L/kg and the Cmax ([1]; Oral (10 mg/kg)) was 4295 ng/mL. The F % ([1]; Oral (10 mg/kg)) was 41.7%, the Tmax ([1]; Oral (10 mg/kg)) was 0.500 h and the AUC [1, 5] was 16700 ng·h/mL. The AUC [1, 6] was 7990 ng·h/mL, the C0 [1, 6] was 2950 ng/mL and the Cmax [2, 7] was 663 ± 497 ng/mL. The F % [2, 7] was 16.6 ± 9.95%, the Tmax [2, 7] was 4.0 ± 0 h and the C0 [2, 8] was 1290 ± 106 ng/mL. It also gave a C0 ([3]; iv, I.V. (1 mg/kg)) of 2150 ± 123 ng/mL and a C0 ([4]; iv, I.V. (1 mg/kg)) of 185 ± 8.4 ng/mL.
Compound `[2H]C([2H])([2H])CC(=O)c1cnc(Nc2cccc(C#N)n2)cc1Nc1cccc(-c2ncn(C([2H])([2H])[2H])n2)c1OC` [Example 198] has a Cmax [2, 7] of 246 ± 124 ng/mL, a F % [2, 7] of 59.4 ± 21.1% and a Tmax [2, 7] of 4 ± 0 h. The C0 [2, 8] was 667 ± 82 ng/mL, the C0 ([3]; iv, I.V. (1 mg/kg)) was 1200 ± 70 ng/mL and the C0 ([4]; iv, I.V. (1 mg/kg)) was 182 ± 47.6 ng/mL.
With `[2H]C([2H])([2H])CC(=O)c1cnc(Nc2cccc(C#N)n2)cc1Nc1nccc(-c2ncn(C([2H])([2H])[2H])n2)c1OC` [Example 199] the C0 ([3]; iv, I.V. (1 mg/kg)) was 414 ± 56 ng/mL and the C0 ([4]; iv, I.V. (1 mg/kg)) was 334 ± 96 ng/mL.
For `[2H]C([2H])([2H])CC(=O)c1cnc(NC(=O)C2CC2)cc1Nc1nccc(-c2ncn(C([2H])([2H])[2H])n2)c1OC` [Example 200], the CL ([1]; I.V. (2 mg/kg)) was 7.35 mL · kg − 1 · min − 1, the Vdss ([1]; I.V. (2 mg/kg)) was 1.5 L/kg and the Cmax ([1]; Oral (10 mg/kg)) was 4193 ng/mL. The F % ([1]; Oral (10 mg/kg)) was 85.1%, the Tmax ([1]; Oral (10 mg/kg)) was 0.250 h and the AUC [1, 5] was 19300 ng·h/mL. It also gave an AUC [1, 6] of 4480 ng·h/mL, a C0 [1, 6] of 2390 ng/mL and a Cmax [2, 7] of 384 ± 22 ng/mL. It also gave a F % [2, 7] of 27.7 ± 1.7%, a Tmax [2, 7] of 2.0 ± 0 h and a C0 [2, 8] of 677 ± 81 ng/mL. The C0 ([3]; iv, I.V. (1 mg/kg)) was 1030 ± 47 ng/mL, the C0 ([4]; iv, I.V. (0.5 mg/kg)) was 29.7 ± 14 ng/mL and the clearance ([4]; iv, I.V. (0.5 mg/kg)) was 8.17 ± 2.6 mL/min/kg.
`[2H]C([2H])([2H])CC(=O)c1cnc(Nc2ccc(C(C)(C)O)c(F)n2)cc1Nc1nccc(-c2ncn(C([2H])([2H])[2H])n2)c1OC` [Example 201] gave a Cmax [2, 7] of 13.9 ± 2 ng/mL, a F % [2, 7] of 4.67 ± 1.5% and a Tmax [2, 7] of 2.33 ± 1.5 h. The C0 [2, 8] was 849 ± 50 ng/mL, the C0 ([3]; iv, I.V. (1 mg/kg)) was 1190 ± 116 ng/mL and the C0 ([4]; iv, I.V. (1 mg/kg)) was 458 ± 336 ng/mL.
Compound `[2H]C([2H])([2H])CC(=O)c1cnc(Nc2ccc(C(C)(C)O)c(F)n2)cc1Nc1cccc(-c2ncn(C([2H])([2H])[2H])n2)c1OC` [Example 202] has a CL ([1]; I.V. (2 mg/kg)) of 17.3 mL · kg − 1 · min − 1, a Vdss ([1]; I.V. (2 mg/kg)) of 0.785 L/kg and a Cmax ([1]; Oral (10 mg/kg)) of 1899 ng/mL. For the same compound, the F % ([1]; Oral (10 mg/kg)) was 66.6%, the Tmax ([1]; Oral (10 mg/kg)) was 0.500 h and the AUC [1, 5] was 6400 ng·h/mL. It also gave an AUC [1, 6] of 1910 ng·h/mL, a C0 [1, 6] of 3340 ng/mL and a C0 ([3]; iv, I.V. (1 mg/kg)) of 1980 ± 101 ng/mL. For the same compound, the C0 ([4]; iv, I.V. (1 mg/kg)) was 469 ± 255 ng/mL.
For `[2H]C([2H])([2H])CC(=O)c1cnc(Nc2ccc(C(O)(C([2H])([2H])[2H])C([2H])([2H])[2H])c(F)n2)cc1Nc1ncccc1S(C)(=O)=O` [Example 203], the C0 [2, 8] was 787 ± 61 ng/mL.
For `[2H]C([2H])([2H])NC(=O)c1nnc(NC(=O)C2CC2)cc1Nc1cccc(-c2ncn(C)n2)c1OC` [control, BMS-986165, reference compound], the AUC [1, 5] was 8870 ng·h/mL, the bioavailability [1, 5] was 86.7% and the half-life [1, 5] was 2.96 h. It also gave a Cmax ([1]; male, mouse, plasma, Oral (10 mg/kg), read-out: Cmax) of 4700 ng/mL, a Tmax ([1]; male, mouse, plasma, Oral (10 mg/kg), read-out: Tmax) of 0.25 h and an AUC [1, 6] of 2040 ng·h/mL. It also gave a C0 [1, 6] of 3220 ng/mL, a clearance [1, 6] of 15.6 mL/min/kg and a half-life [1, 6] of 2.19 h. For the same compound, the Vd ([1]; male, mouse, plasma, iv, I.V. (2 mg/kg), read-out: Vdss) was 1.56 L/kg, the AUC [2, 9] was 3190 ± 1630 ng·h/mL and the bioavailability [2, 9] was 27.8 ± 14%. It also gave a half-life [2, 9] of 10.6 ± 3.8 h, a Cmax ([2]; cynomolgus monkey, plasma, Oral (2 mg/kg), NA: no detectable, read-out: Cmax) of 247 ± 136 ng/mL and a Tmax ([2]; cynomolgus monkey, plasma, Oral (2 mg/kg), NA: no detectable, read-out: Tmax) of 5.33 ± 1.2 h. It also gave an AUC [2, 8] of 5740 ± 1170 ng·h/mL, a C0 [2, 8] of 1420 ± 264 ng/mL and a clearance [2, 8] of 2.79 ± 0.74 mL/min/kg. The half-life [2, 8] was 7.54 ± 1.6 h, the Vd ([2]; cynomolgus monkey, plasma, iv, I.V. (1 mg/kg), read-out: Vdss) was 1.2 ± 0.042 L/kg and the AUC ([3]; Oral (5 mg/kg)) was 3200 ± 600 ng·h/mL. It also gave a Cmax ([3]; Oral (5 mg/kg)) of 792 ± 260 ng/mL, a Tmax ([3]; Oral (5 mg/kg)) of 1 ± 0.87 h and a bioavailability ([3]; Oral (5 mg/kg)) of 32.6 ± 5.4%. For the same compound, the half-life ([3]; Oral (5 mg/kg)) was 2.93 ± 1.2 h, the AUC ([3]; iv, I.V. (1 mg/kg)) was 1970 ± 166 ng·h/mL and the C0 ([3]; iv, I.V. (1 mg/kg)) was 1740 ± 276 ng/mL. It also gave a clearance ([3]; iv, I.V. (1 mg/kg)) of 8.41 ± 0.7 mL/min/kg, a half-life ([3]; iv, I.V. (1 mg/kg)) of 2.42 ± 1.7 h and a Vd [3, 10] of 0.933 ± 0.12 L/kg. For the same compound, the AUC ([4]; Oral (2 mg/kg)) was 1310 ± 579 ng·h/mL, the Cmax ([4]; Oral (2 mg/kg)) was 222 ± 46 ng/mL and the Tmax ([4]; Oral (2 mg/kg)) was 1.67 ± 0.58 h. The bioavailability ([4]; Oral (2 mg/kg)) was 35.5 ± 15%, the half-life ([4]; Oral (2 mg/kg)) was 6.21 ± 2.9 h and the AUC ([4]; iv, I.V. (1 mg/kg)) was 1900 ± 349 ng·h/mL. For the same compound, the C0 ([4]; iv, I.V. (1 mg/kg)) was 559 ± 34 ng/mL, the clearance ([4]; iv, I.V. (1 mg/kg)) was 8.85 ± 1.7 mL/min/kg and the half-life ([4]; iv, I.V. (1 mg/kg)) was 4.43 ± 0.87 h. For the same compound, the Vd [4, 10] was 2.27 ± 0.23 L/kg.

From US11731956B2, “Substituted 1,2,4-triazoles as intermediates in the synthesis of TYK2 inhibitors” (Alumis Inc., priority 2018, dated 2023)
